# Assay results taken from patent US8193192B2, “Heterocyclic FXR binding compounds” (Phenex Pharmaceuticals AG, priority 2006, dated 2012).
# Test: Determination of pharmacokinetic parameters in mice (oral cassette dosing)
# Format: in vivo
# Details: C57BL/6 mice, po 5 mg/kg; for Vd: elimination phase; for CL: total body clearance; for Cmax / Tmax / AUC(0-inf) / concentration at 10 min / concentration at 30 min / concentration at 60 min / concentration at 120 min / concentration at 240 min / concentration at 480 min: male, mouse, plasma; for AUC(0-inf): extrapolated to infinity; for concentration at 10 min / concentration at 30 min / concentration at 60 min / concentration at 120 min / concentration at 240 min / concentration at 480 min: cassette, read-out: mean plasma conc.
# Procedure: FIG. 1: Graphical depiction of pharmacokinetic data of compound A compared to example 3. Compound plasma concentrations (logarithmic scale) are plottet against sampling timepoints. Conditions: C57BL/6 mice, oral cassette dosing, 5 mg/Kg in 10% HPBCD/20 mM phosphate buffer.
# Determination of Pharmacokinetic Parameters in Mice
# Data on the rate and extent of absorption of the test compounds were generated. Compounds were applied perorally at 5 mg/kg each to male 8 weeks old C57BL/6 mice and plasma concentrations of the test items were determined by LC-MS/MS. A solution of […] of each test item was produced by diluting them in the vehicle, 10% HPBCD (hydroxypropyl-beta-cyclodextrin) in 20 mM phosphate buffer pH 7.0 (v/w). These solutions were stirred overnight at room temperature and heated to 60° C. for 10 minutes, resulting in a full solubilization. Then, an identical volume of each solution were mixed together to constitute the cassette. The application was performed by administrating the solution perorally to the mice, with an application volume of 10 ml/kg. […] Blood samples were obtained by sacrificing three animals for each time point (10, 30, 60, 120, 240, and 480 min) followed by cardiac puncture. Blood samples were treated with Li-heparin during collection procedure and stored on ice until centrifugation at 645 g (5 min, 4° C.). Plasma was harvested and kept at −20° C. until being assayed. To 50 μl of mouse plasma sample 6 μl acetonitrile containing an internal standard was added. Samples were vigorously shaken and centrifuged for 10 minutes at 6000 g and 20° C. An aliquot of the particle-free supernatant was transferred to 200 μl sampler vials and subsequently subjected to LC MS/MS for quantification.
# Concentrations were plotted against sampling time for illustrating higher plasma levels of example 3 compared to plasma levels of compound A. The results are illustrated in FIG. 1.
# PK calculation: The pharmacokinetic analysis of raw data was performed by applying a non-compartment model using the PK Solutions 2.0 software (Summit Research Services, Montrose, USA). All given parameters are model independent and were obtained by trapezoid area calculation and have the following meaning:
# Cmax obs: maximal measured concentration;
# tmax obs: time to reach the maximum measured concentration;
# AUC0-∞: area under the concentration-time curve extrapolated to infinity;
# Vd: volume of distribution during elimination phase;
# CL: total body clearance.
Compound,Vd [L/kg],CL [mL/min/kg],Cmax [ng/mL],Tmax [min],AUC(0-inf) [ng·h/mL],concentration at 10 min [ng/mL],concentration at 30 min [ng/mL],concentration at 60 min [ng/mL],concentration at 120 min [ng/mL],concentration at 240 min [ng/mL],concentration at 480 min [ng/mL]
"Cc1cc(OCc2c(-c3c(Cl)cccc3Cl)noc2C(C)C)cnc1Oc1ccc(C(=O)O)cc1 [Example 3, 4-(5-((3-(2,6-Dichlorophenyl)-5-isopropylisoxazol-4-yl)methoxy)-3-methylpyridin-2-yloxy)benzoic acid]",9.271,59,904,10,1410,904,867,291,214,63,20
"CC(C)c1onc(-c2c(Cl)cccc2Cl)c1COc1ccc(Oc2ccc(C(=O)O)cc2)cc1 [Compound A, reference compound]",110.078,343,120,10,242,120,102,43,24,15,8
